Common to all, as to type: cell-based
Series [1] in a line: Cytotoxicity against human Caco-2 cells assessed as cell viability at 180 uM after 2 hrs by MTT assay. The conditions noted are these: read-out: Activity.
In series [2] the target is T1, T-cell surface antigen CD2 (Homo sapiens) (UniProt P06729).
T1 sequence (whole entry): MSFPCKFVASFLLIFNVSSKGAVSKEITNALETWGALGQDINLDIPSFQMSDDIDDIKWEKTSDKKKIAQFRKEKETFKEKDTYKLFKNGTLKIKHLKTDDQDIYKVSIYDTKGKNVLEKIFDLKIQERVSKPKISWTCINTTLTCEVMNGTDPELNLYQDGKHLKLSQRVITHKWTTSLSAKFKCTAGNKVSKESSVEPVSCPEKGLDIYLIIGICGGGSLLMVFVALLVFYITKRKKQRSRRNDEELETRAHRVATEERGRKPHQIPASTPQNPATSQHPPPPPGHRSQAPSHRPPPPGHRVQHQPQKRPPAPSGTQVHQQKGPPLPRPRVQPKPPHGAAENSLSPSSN
Briefly: Inhibition of CD2-CD58 interaction assessed as inhibition of CD2 expressing human Jurkat T cell adhesion to CD58 expressing human Caco-2 cells at 90 uM after 45 mins by microplate fluorescence analysis.

Another series deals with Jurkat. Description: Inhibition of CD2-CD58 interaction assessed as inhibition of CD2 expressing human Jurkat T cell to CD58 expressing sheep RBC adhesion-associated E-rosette formation at 180 uM after 45 mins by microplate fluorescence analysis.
In series [3] the target is T1, T-cell surface antigen CD2 (Homo sapiens). Description: Inhibition of CD2-CD58 interaction assessed as inhibition of CD2 expressing human Jurkat T cell adhesion to CD58 expressing human Caco-2 cells after 45 mins by microplate fluorescence analysis relative to control.
Series [4] deals with T2, Lymphocyte function-associated antigen 3 (Homo sapiens) (UniProt P19256).
T2 sequence (whole entry): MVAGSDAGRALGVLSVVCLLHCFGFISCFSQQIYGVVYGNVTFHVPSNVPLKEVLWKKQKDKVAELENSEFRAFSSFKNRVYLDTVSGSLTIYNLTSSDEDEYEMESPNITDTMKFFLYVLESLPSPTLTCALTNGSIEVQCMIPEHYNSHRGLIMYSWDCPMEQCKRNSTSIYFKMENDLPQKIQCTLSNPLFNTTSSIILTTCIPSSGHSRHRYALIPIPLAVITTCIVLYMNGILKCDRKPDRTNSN
Description: Inhibition of antiCD58-FITC binding to CD58 in human Caco-2 cells at 180 uM after 1 hr by fluorescence analysis relative to control.

Positions of bridges follow the written chain, without caps; N, C: chain ends. Residues, ends and D or L forms follow the SMILES beside them.

Turning to `CC[C@H](C)[C@@H]1NC(=O)[C@H](CC(=O)O)NC(=O)[C@H](CC(=O)O)NC(=O)CNC(=O)[C@@H]2CCCN2C(=O)[C@H](CC(=O)O)NC(=O)[C@H](Cc2ccc(O)cc2)NC(=O)[C@H]([C@@H](C)CC)NC(=O)[C@H](CCC(=O)O)NC(=O)[C@H](CCCCN)NC1=O`, the viability at 2 h, 180 µM in series [1] was over 80%.

As a reminder, the inhibition is the drop in the measured response relative to a control, in per cent. Consider `CC[C@H](C)[C@@H]1NC(=O)[C@H](CO)NC(=O)[C@@H](N)C(C)(C)SSC[C@@H](C(=O)O)NC(=O)[C@@H](CCCCN)NC(=O)[C@H]([C@@H](C)CC)NC(=O)[C@H](CC(=O)O)NC(=O)[C@H](CC(=O)O)NC(=O)CNC(=O)[C@@H]2CCCN2C(=O)[C@H](CC(=O)O)NC(=O)[C@H](Cc2ccc(O)cc2)NC1=O`, for which the inhibition in series [2] is 30%; in the series with Jurkat it was 20%. For the same compound, the viability at 2 h, 180 µM in series [1] was over 80%.

Turning to `CC[C@H](C)[C@@H]1NC(=O)[C@H](CC(=O)O)NC(=O)[C@@H](CC(=O)O)NC(=O)CNC(=O)[C@@H]2CCCN2C(=O)[C@H](CC(=O)O)NC(=O)[C@H](Cc2ccc(O)cc2)NC(=O)[C@H]([C@@H](C)CC)NC(=O)[C@H](CCC(=O)O)NC(=O)[C@H](CCCCN)NC1=O`, the inhibition in series [2] came out at 80%; in the series on Jurkat, 60%. For the same compound, in series [3], the Activity result was “Dose-dependent effect”.

`CC[C@H](C)[C@@H]1NC(=O)[C@H](CC(=O)O)NC(=O)[C@H](CC(=O)O)NC(=O)CNC(=O)[C@@H]2CCCN2C(=O)[C@H](CC(=O)O)NC(=O)[C@H](Cc2ccc(O)cc2)NC(=O)[C@H]([C@@H](C)CC)NC(=O)[C@@H](N)CCC(=O)NCCCC[C@@H](C(=O)O)NC1=O` (H-EIYDPGDDIK-OH; lactam 1-10): the figures for the inhibition (in series [2]; in the series with Jurkat) were 80% and 50%, respectively. Moreover, in series [3], the Activity entry was “Dose-dependent effect”. The viability at 2 h, 180 µM in series [1] was over 80%.

Regarding `CC[C@H](C)[C@@H]1NC(=O)[C@H](CC(=O)O)NC(=O)[C@H](CC(=O)O)NC(=O)CNC(=O)[C@@H]2CCCN2C(=O)[C@H](CC(=O)O)NC(=O)[C@H](Cc2ccc(O)cc2)NC(=O)[C@H]([C@@H](C)CC)NC(=O)[C@H](CO)NC(=O)[C@@H](N)CCC(=O)NCCCC[C@@H](C(=O)O)NC1=O` (H-ESIYDPGDDIK-OH; lactam 1-11), the values for the inhibition (in series [2]; in the series on Jurkat; in series [4]) were 80%, 60% and 45%, respectively. Further, in series [3], the Activity result was “Dose-dependent effect”. The viability at 2 h, 180 µM in series [1] is over 80%.

For the origin of these results see ChEMBL document CHEMBL1143338, “Design of beta-hairpin peptides for modulation of cell adhesion by beta-turn constraint” (J Med Chem, 2009).
